# Experimental data as given in patent US20030097221A1, “Detection and characterization of psychoactives using parallel multi-site assays in brain tissue” (priority 2001, published 2003).
# Values joined by “and” are separate entries in the source; they are usually repeats but may differ in a detail not shown here. Equal entries are not always repeated.
# How the values were obtained:
# Format in all cases: cell-based, rat
# [1] = test system: hippocampal slice regions (CA1, DG, MF); test: Comparison between regions of the slice, area under the curve for all 4 assays (FIG. 9); settings: prediction drawn from the results of FIG. 9
# Method: All assays employ paired-pulse stimulation at various rat hippocampal sites to elicit evoked responses. The resulting field EPSP recordings were analyzed using Matlab software (The MathWorks, Inc.) by computing several response measures such as amplitude, halfwidth, and negative area, which apply to both the first and second evoked reponses. Amplitude was defined as the maximum depolarization magnitude relative to the average baseline reading prior to the first stimulation pulse. Halfwidth was defined as the duration of the depolarization phase of the evoked response at half its maximum amplitude value. Negative area was obtained by taking the magnitude of the integral of the evoked response curve over all segments with the same polarity as the depolarization phase. This integral spans a time window of 25 msec beginning one msec after the stimulation pulse. […]
# (§1) All response paramters were utilized to quantify candidate sample composition effects on the hippocampus. […]
# To compare the response of tissue slices to candidate sample compositions between different regions of the slice, the area under the curve for all 4 assays was calculated.
# To compare the effect of compounds in candidate sample compositions between different regions of a tissue slice, the area under the curve for all 4 assays was calculated. […]
# [2] = test system: glutamate receptor-mediated evoked excitatory synaptic transmission, hippocampal slice dentate gyrus; test: Paired-pulse evoked fEPSP in dentate gyrus (assay DG50), MED64; settings: 250 μM; 50 ms inter-pulse delay
# Method: A 17-24 day old Sprague Dawley rat was decapitated after anesthesia with halothane (2-bromo-2-chloro-1,1,1-trifluoroethane; Sigma; B4388), and the whole brain was removed. The brain was immediately soaked for ˜2 min in ice-cold, oxygenated preparation buffer of the following composition (in mM): 124 NaCl, 26 NaHCO3, 10 glucose, 3 KCl, 1.25 NaH2PO4, 2 CaCl2, and 2 MgSO4. Appropriate portions of the brain were trimmed and placed on the ice-cold stage of a vibrating tissue slicer (Leica, Nussloch, Germany; VT-1000S). The stage was immediately filled with both oxygenated and frozen preparation buffers. The thickness of each tissue slice was 350 μm. Each slice was gently taken off the blade, and immediately soaked in the oxygenated artificial cerebrospinal fluid (ACSF) for at least 1 hr at room temperature. Then a slice was placed on the center of the MED probe. The slice was positioned to cover the 8×8 array. After positioning the slice, the MED probe was immediately placed in a box filled with 95% O2 and 5% CO2. […]
# (§2) Evoked field potentials at all 64 sites (minus stimulation sites) were recorded simultaneously with the multichannel recording system (Panasonic: MED64 system) at a 20 kHz sampling rate. […]
# (§3) All assays employ paired-pulse stimulation at various rat hippocampal sites to elicit evoked responses. The resulting field EPSP recordings were analyzed using Matlab software (The MathWorks, Inc.) by computing several response measures such as amplitude, halfwidth, and negative area, which apply to both the first and second evoked reponses. Amplitude was defined as the maximum depolarization magnitude relative to the average baseline reading prior to the first stimulation pulse. […]
# The polarity of the evoked responses for assay DG50 was reversed before analysis because of the inverted voltage values recorded by the DG50 electrode. Assays SC50, SC200, MF50, and CA3-1—50, however, were analyzed without such a reversal. […]
# as §1
# [3] = test system: glutamate receptor-mediated evoked excitatory synaptic transmission, hippocampal slice CA1; test: Paired-pulse evoked fEPSP in CA1, Schaffer collateral stimulation (assays SC50, SC200), MED64 multi-electrode array; design: key to SC 50 ms Amplitude fEPSP 1st, Mean / SC 50 ms Amplitude fEPSP 2nd, Mean / SC 200 ms Widths fEPSP 1st, Mean / SC 200 ms Widths fEPSP 2nd, Mean: fractional change vs. last 5 min of pre-wash-in control phase
# Method: A 17-24 day old Sprague Dawley rat was decapitated after anesthesia with halothane (2-bromo-2-chloro-1,1,1-trifluoroethane; Sigma; B4388), and the whole brain was removed. The brain was immediately soaked for ˜2 min in ice-cold, oxygenated preparation buffer of the following composition (in mM): 124 NaCl, 26 NaHCO3, 10 glucose, 3 KCl, 1.25 NaH2PO4, 2 CaCl2, and 2 MgSO4. Appropriate portions of the brain were trimmed and placed on the ice-cold stage of a vibrating tissue slicer (Leica, Nussloch, Germany; VT-1000S). The stage was immediately filled with both oxygenated and frozen preparation buffers. The thickness of each tissue slice was 350 μm. Each slice was gently taken off the blade, and immediately soaked in the oxygenated artificial cerebrospinal fluid (ACSF) for at least 1 hr at room temperature. Then a slice was placed on the center of the MED probe. The slice was positioned to cover the 8×8 array. After positioning the slice, the MED probe was immediately placed in a box filled with 95% O2 and 5% CO2.
# During recording, the slices were continuously perfused with a solution of the following composition: ACSF (in mM): 124 NaCl, 26 NaHCO3, 10 glucose, 3 KCl, 1.25 kH2PO4, 2 CaCl2, 1 MgSO4. All compounds were bath applied at known concentrations and were prepared daily from frozen aliquots. Compounds were purchased from Sigma. Ampakines (CX516, CX546, CX554) were made fresh everyday, and used at concentrations: CX516, 250 μM; CX546, 250 μM; and CX554, 30 μM.
# Baseline, application, and recovery time was usually at 10, 20, and 30 min respectively.
# During electrophysiological recording, the slices on the MED probe were placed in a small CO2 incubator (Asahi Lifescience; model 4020) at 32° C. The slices were placed on an interface, and a moisturized with a 95% O2 and 5% CO2 gas mixture.
# Evoked field potentials at all 64 sites (minus stimulation sites) were recorded simultaneously with the multichannel recording system (Panasonic: MED64 system) at a 20 kHz sampling rate. In the case of the evoked response, one of the planar microelectrodes out of the 64 available was used for the stimulating cathode. Bipolar constant-current pulses (10-50 μA; 0.1 ms) were produced by the data acquisition software via the isolator. The stimulating microelectrode was selected by the 64-switch box.
# All assays employ paired-pulse stimulation at various rat hippocampal sites to elicit evoked responses. The resulting field EPSP recordings were analyzed using Matlab software (The MathWorks, Inc.) by computing several response measures such as amplitude, halfwidth, and negative area, which apply to both the first and second evoked reponses. Amplitude was defined as the maximum depolarization magnitude relative to the average baseline reading prior to the first stimulation pulse. Halfwidth was defined as the duration of the depolarization phase of the evoked response at half its maximum amplitude value. Negative area was obtained by taking the magnitude of the integral of the evoked response curve over all segments with the same polarity as the depolarization phase. This integral spans a time window of 25 msec beginning one msec after the stimulation pulse.
# Amplitudes and halfwidths for both first and second elicited responses were computed for assays SC50, SC200, and CA3-1—50. For DG50 only first and second amplitudes were computed. Negative areas for first and second responses were computed for SC50, SC200, CA3-1—50, and MF50.
# All response paramters were utilized to quantify candidate sample composition effects on the hippocampus. For a given response parameter, the candidate sample composition effect was defined as the percent change of the average measure during the last five minutes of the wash-in phase with respect to the average measure of the last five minutes of the preceding, pre-wash-in control phase. […]
# [4] = test system: glutamate receptor-mediated evoked excitatory synaptic transmission, hippocampal slice mossy fibers; test: Paired-pulse evoked fEPSP, mossy fibers (assay MF50), MED64; settings: 250 μM; 50 ms inter-pulse delay
# Method: A 17-24 day old Sprague Dawley rat was decapitated after anesthesia with halothane (2-bromo-2-chloro-1,1,1-trifluoroethane; Sigma; B4388), and the whole brain was removed. The brain was immediately soaked for ˜2 min in ice-cold, oxygenated preparation buffer of the following composition (in mM): 124 NaCl, 26 NaHCO3, 10 glucose, 3 KCl, 1.25 NaH2PO4, 2 CaCl2, and 2 MgSO4. Appropriate portions of the brain were trimmed and placed on the ice-cold stage of a vibrating tissue slicer (Leica, Nussloch, Germany; VT-1000S). The stage was immediately filled with both oxygenated and frozen preparation buffers. The thickness of each tissue slice was 350 μm. […]
# as §2, §3
# [5] = CX516 250 μM, individual slice files, normalized change over control
# [6] = CX516 250 μM, n = 4, normalized change over control
smiles,measurement,setting,value
"O=C(c1ccc2nccnc2c1)N1CCCCC1 [CX516, 1-(Quinoxalin-6-ylcarbonyl)piperidine]",degree to which ampakines enhance activation of interneurons (rank order),[1],CX554>CX546>CX516
same,responses recorded in dentate gyrus (amplitude),[2],increase
same,amplitude of both responses in CA1,"[3]; 250 μM, 50 ms or 200 ms delay between stimulation pulses",increase in the amplitude
same,effect on half-width of both responses,"[3]; 250 μM, summary of Table 1",no effect
same,increase of the amplitude of first and second fEPSP,"[3]; 250 μM, summary of Table 1",15-17%
same,SC 50 ms Amplitude fEPSP 1st,[3]; [5],0.276 and 0.211 and 0.087 and 0.110
same,SC 50 ms Amplitude fEPSP 2nd,[3]; [5],0.246 and 0.192 and 0.044 and 0.085
same,SC 50 ms Widths fEPSP 1st,[3]; [5],0.020 and −0.023 and 0.063 and 0.007
same,SC 50 ms Widths fEPSP 2nd,[3]; [5],−0.001 and 0.017 and 0.045 and 0.026
same,SC 200 ms Amplitude fEPSP 1st,[3]; [5],0.260 and 0.206 and 0.093 and 0.114
same,SC 200 ms Amplitude fEPSP 2nd,[3]; [5],0.258 and 0.194 and 0.067 and 0.085
same,SC 200 ms Widths fEPSP 1st,[3]; [5],0.036 and −0.024 and 0.051 and −0.002
same,SC 200 ms Widths fEPSP 2nd,[3]; [5],0.035 and 0.001 and 0.049 and 0.037
same,"SC 50 ms Amplitude fEPSP 1st, Change over Control (%)","[3]; CX516 250 μM, n = 4",17.108%
same,"SC 50 ms Amplitude fEPSP 2nd, Change over Control (%)","[3]; CX516 250 μM, n = 4",14.178%
same,"SC 50 ms Widths fEPSP 1st, Change over Control (%)","[3]; CX516 250 μM, n = 4",1.658%
same,"SC 50 ms Widths fEPSP 2nd, Change over Control (%)","[3]; CX516 250 μM, n = 4",2.168%
same,"SC 200 ms Amplitude fEPSP 1st, Change over Control (%)","[3]; CX516 250 μM, n = 4",16.825%
same,"SC 200 ms Amplitude fEPSP 2nd, Change over Control (%)","[3]; CX516 250 μM, n = 4",15.088%
same,"SC 200 ms Widths fEPSP 1st, Change over Control (%)","[3]; CX516 250 μM, n = 4",1.525%
same,"SC 200 ms Widths fEPSP 2nd, Change over Control (%)","[3]; CX516 250 μM, n = 4",3.055%
same,"SC 50 ms Amplitude fEPSP 1st, Mean",[3]; [6],0.171
same,"SC 50 ms Amplitude fEPSP 2nd, Mean",[3]; [6],0.142
same,"SC 50 ms Widths fEPSP 1st, Mean",[3]; [6],0.017
same,"SC 50 ms Widths fEPSP 2nd, Mean",[3]; [6],0.022
same,"SC 200 ms Amplitude fEPSP 1st, Mean",[3]; [6],0.168
same,"SC 200 ms Amplitude fEPSP 2nd, Mean",[3]; [6],0.151
same,"SC 200 ms Widths fEPSP 1st, Mean",[3]; [6],0.015
same,"SC 200 ms Widths fEPSP 2nd, Mean",[3]; [6],0.031
same,kind of modulation of the responses in CA1 (halfwidth vs amplitude),"[3]; CX516, CX546 250 μM, CX554 30 μM",amplitude only modulation
same,mossy fibers' response (area),[4],increase
